In series [1] the test system is High Frequency Oscillations (HFO) in the nucleus accumbens. Put plainly: Resting state electroencephalography (rsEEG) in rats. Format: in vivo. The note with it: rat, 20 mg/kg, vs 10% captisol, FIG. 1. As to the method: On the day of surgery, rats (270-300 g) were anesthetized with a 0.25 ml/100 g subcutaneous (SC) injection of 1:1 hypnorm/Dormicum and mounted in a stereotaxic frame (David Kopf Instruments, Tujunga, Calif., USA) with blunt ear bars. Marcain (0.2 ml SC) was injected under the scalp, and gel (Neutral Opthta Eye Gel) put on the eyes to prevent the mucous membrane drying out. Holes were burred in the skull to allow for placement of three depth electrodes (E363-series; PlasticsOne, Roanoke, Va., USA) in medial prefrontal cortex (mPFC) (AP: 3.0 mm from the bregma suture, ML: −0.7 mm from the sagittal suture and DV: 3.0 mm from the dura), Nucleus accumbens (NAc): (AP+1.6 mm from the bregma suture, ML: −1.0 mm from the sagittal suture, DV: −6.7 mm from the dura) and thalamus (AP: −2.8 mm from the bregma suture, ML: +0.7 mm from the sagittal suture and DV: 4.4 mm from the dura) and three screw electrodes above the auditory cortex (A1) (AP: −4.8 mm from the bregma suture, ML: +6.4 mm from the sagittal suture), a reference electrode (AP: +8.0 mm and ML: −2.0 mm), and a ground electrode (AP: −5 mm, ML: +5 mm). […] Animal bodyweights were recorded daily. […]
Rats were handled daily and habituated to recording box the week before recording sessions. […] The analysis of the locomotor behaviour was based on the recorded accelerometer signal. […]

Series [2] is described as follows: In vivo exposure (brain disposition) after intravenous bolus injection. Also noted: species or system male Sprague Dawley rats. The note with it: male, Sprague-Dawley, rat, 2 mg/kg intravenous bolus, 30 min post dose. On the procedure: Brain disposition of test compound was evaluated in male Sprague Dawley rats (standard body weight range). Briefly, discrete (nominal dose: 2 mg/kg, 2 ml/kg) or cassetted (nominal dose: 1 mg/kg/compound, 2 ml/kg) test compounds were administered by intravenous bolus injection (formulated in 10% hydroxypropyl-β-cyclodextrin or 10-20% Captisol, pH=3).
Serial blood samples were collected from a lateral tail vein at designated time points (n=3 per time point) then rats were put under deep isoflurane induced anesthesia prior to removal of brains (n=3 per time point). Blood was collected into K3-EDTA-coated tubes and the samples were gently turned upside-down to ensure a homogenous sample. The tubes were centrifuged at 3300×g for 10 min. at max 4° C. and plasma samples were transferred to Micronic tubes. […]
Seven calibration standards and three QC samples were prepared in plasma and brain homogenate, respectively, in the concentration range 10-10000 ng/mL. […] Study samples with expected concentration above upper limit of quantification were diluted with blank matrix. […]
Samples were analyzed using an AB Sciex API4000 triple quadrupole (TQ) mass spectrometer operated in positive and negative electrospray ionization and MS/MS mode (multiple reaction monitoring, MRM). […] Quantification was performed by linear regression, 1/x2 weighting.

The nature of series [3]: Microdialysis studies in rats (ventral hippocampus). It counts as in vivo, Male Sprague-Dawley rats. The note with it: 30 mg/kg subcutaneously, FIG. 2. As to the method: Male Sprague-Dawley rats, initially weighing 275-300 g, were used. The animals were housed under a 12-hr light/dark cycle under controlled conditions for regular in-door temperature (21±2° C.) and humidity (55±5%) with food and tap water available ad libitum.
Rats were anaesthetised with hypnorm/dormicum (2 ml/kg) and intracerebral guide cannulas.
(CMA/12) were stereotaxically implanted into the brain, aiming to position the dialysis probe tip in the ventral hippocampus (co-ordinates: 5.6 mm posterior to bregma, lateral −4.8 mm, 7.0 mm ventral to dura. Anchor screws and acrylic cement were used for fixation of the guide cannulas. The body temperature of the animals was monitored by rectal probe and maintained at 37° C. The rats were allowed to recover from surgery for 2 days, housed singly in cages.
On the day of the experiment a microdialysis probe (CMA/12, 0.5 mm diameter, 3 mm length) was inserted through the guide cannula. The probe was connected via a dual channel swivel to a microinjection pump. Perfusion of the microdialysis probe with filtered Ringer solution (145 mm NaCl, 3 mM KCl, 1 mM MgCl2, 1.2 mM CaCl2) was begun shortly before insertion of the probe into the brain and continued for the duration of the experiment at a constant flow rate of 1 μl/min. After 180 min of stabilisation, the experiments were initiated. […]

The target of series [4] is NR1s1s2 (ligand binding domains of the NMDA receptor), glycine site (Rattus norvegicus, UniProt P35439). The experiment in a line: Scintillation Proximity Assay (SPA), displacement of [3H]-MDL-105,519. As to conditions: radioligand used in SPA. From the text:
Scintillation Proximity Assay (SPA):
Normalized data are used to calculate Ki values.

Like-named read-outs stand apart in the source and are kept apart here.

2 compounds from US11466027B2, “Modulators of the NMDA receptor” (H. Lundbeck A/S, priority 2019, dated 2022) can be followed below.

Regarding `Cc1ccnc2cc(C(=O)NC[C@@H](N)C(=O)O)sc12` [Compound 1e, (R)-2-amino-3-[(7-methylthieno[3,2-b]pyridine-2-carbonyl)amino]propanoic acid], the “Effect in rsEEG (High Frequency Oscillations in the nucleus accumbens) compared to vehicle” value in series [1] is “clear effect”. Besides, the concentration at 30 min was found to be 8.4 ng/mL in series [2] (brain, read-out: Total Brain concentration (ng/mL) 30 min post dose) and 270 ng/mL in series [2] (plasma, read-out: Total Plasma concentration (ng/mL) 30 min post dose). In addition, the “Extracellular levels in the rat ventral hippocampus after systemic administration” value in series [3] is “considerable extracellular levels”.

The Kd is the constant that tells how readily two partners part at equilibrium. Lower therefore signals a tighter complex. On to `O=C(O)C(=Cc1c(C(=O)O)[nH]c2cc(Cl)cc(Cl)c12)c1ccccc1` [[^3H]-MDL-105,519], for which, in series [4], the Kd worked out at 1.3 nM.
